PubChem BioAssay (NCI)
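GI50 is the concentration that inhibits growth by half. TGI denotes the concentration required for complete inhibition of growth.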

Assays:
Assay in all cases: growth of human tumour cells (NCI), 384-well format
[1] = system: NCI-H226 lung
[2] = system: K-562 leukemia
[3] = system: SF-295 CNS
[4] = system: SNB-19 CNS
[5] = system: M14 melanoma
[6] = system: KM12 colon
[7] = system: CCRF-CEM leukemia
[8] = system: CAKI-1 renal
[9] = system: MCF7 breast
[10] = system: NCI-H460 NSCLC
[11] = system: LOX IMVI melanoma
[12] = system: OVCAR-3 ovarian
[13] = system: SK-MEL-2 melanoma
[14] = system: OVCAR-4 ovarian
[15] = system: SK-MEL-28 melanoma
[16] = system: IGROV1 ovarian
[17] = system: NCI-H522 lung
[18] = system: EKVX NSCLC
[19] = system: BT-549 breast
[20] = system: A549 NSCLC
[21] = system: UACC-62 melanoma
[22] = system: NCI/ADR-RES ovarian
[23] = system: U251 glioblastoma
[24] = system: PC-3 prostate
[25] = system: DU-145 prostate
[26] = system: NCI-H23 lung
[27] = system: SF-268 CNS
[28] = system: RXF 393 renal
[29] = system: SW-620 colon
[30] = system: OVCAR-5 ovarian
[31] = system: MDA-MB-231 breast
[32] = system: RPMI-8226 leukemia
[33] = system: UACC-257 melanoma
[34] = system: SF-539 CNS
[35] = system: A498 renal
[36] = system: MALME-3M melanoma
[37] = system: HCT-15 colon
[38] = system: UO-31 renal
[39] = system: 786-0 renal
[40] = system: SN12C renal
[41] = system: HCT-116 colon
[42] = system: TK-10 renal
[43] = system: MDA-MB-468 breast
[44] = system: SK-OV-3 ovarian
[45] = system: MOLT-4 leukemia
[46] = system: HL-60(TB) leukemia
[47] = system: T-47D breast
[48] = system: ACHN renal
[49] = system: SR leukemia
[50] = system: HT29 colon
[51] = system: SNB-75 CNS
[52] = system: OVCAR-8 ovarian
[53] = system: SK-MEL-5 melanoma
[54] = system: HOP-62 NSCLC
[55] = system: COLO 205 colon
[56] = system: NCI-H322M lung
[57] = system: HOP-92 NSCLC
[58] = system: MDA-MB-435 melanoma
[59] = system: HCC-2998 colon

Structure (SMILES): C=CC(=O)N1CC[C@@H](Oc2nc(Nc3ccc(N4CCC(N5CCN(C)CC5)CC4)cc3)c(C(N)=O)nc2CC)C1
- GI50 [1]: > 100 µM
- TGI [1]: > 100 µM
- GI50 [2]: > 88.9 µM
- TGI [2]: > 100 µM
- GI50 [3]: > 100 µM
- TGI [3]: > 100 µM
- GI50 [4]: > 100 µM
- TGI [4]: > 100 µM
- GI50 [5]: > 100 µM
- TGI [5]: > 100 µM
- GI50 [6]: > 100 µM
- TGI [6]: > 100 µM
- GI50 [7]: > 100 µM
- TGI [7]: > 100 µM
- GI50 [8]: > 100 µM
- TGI [8]: > 100 µM
- GI50 [9]: > 100 µM
- TGI [9]: > 100 µM
- GI50 [10]: > 100 µM
- TGI [10]: > 100 µM
- GI50 [11]: > 100 µM
- TGI [11]: > 100 µM
- GI50 [12]: > 100 µM
- TGI [12]: > 100 µM
- GI50 [13]: > 100 µM
- TGI [13]: > 100 µM
- GI50 [14]: > 100 µM
- TGI [14]: > 100 µM
- GI50 [15]: > 100 µM
- TGI [15]: > 100 µM
- GI50 [16]: > 100 µM
- TGI [16]: > 100 µM
- GI50 [17]: > 100 µM
- TGI [17]: > 100 µM
- GI50 [18]: > 100 µM
- TGI [18]: > 100 µM
- GI50 [19]: > 100 µM
- TGI [19]: > 100 µM
- GI50 [20]: > 100 µM
- TGI [20]: > 100 µM
- GI50 [21]: > 100 µM
- TGI [21]: > 100 µM
- GI50 [22]: > 100 µM
- TGI [22]: > 100 µM
- GI50 [23]: > 100 µM
- TGI [23]: > 100 µM
- GI50 [24]: > 100 µM
- TGI [24]: > 100 µM
- GI50 [25]: > 100 µM
- TGI [25]: > 100 µM
- GI50 [26]: > 100 µM
- TGI [26]: > 100 µM
- GI50 [27]: > 100 µM
- TGI [27]: > 100 µM
- GI50 [28]: > 100 µM
- TGI [28]: > 100 µM
- GI50 [29]: > 100 µM
- TGI [29]: > 100 µM
- GI50 [30]: > 100 µM
- TGI [30]: > 100 µM
- GI50 [31]: > 100 µM
- TGI [31]: > 100 µM
- GI50 [32]: > 100 µM
- TGI [32]: > 100 µM
- GI50 [33]: > 100 µM
- TGI [33]: > 100 µM
- GI50 [34]: > 100 µM
- TGI [34]: > 100 µM
- GI50 [35]: > 100 µM
- TGI [35]: > 100 µM
- GI50 [36]: > 100 µM
- TGI [36]: > 100 µM
- GI50 [37]: > 100 µM
- TGI [37]: > 100 µM
- GI50 [38]: > 100 µM
- TGI [38]: > 100 µM
- GI50 [39]: > 100 µM
- TGI [39]: > 100 µM
- GI50 [40]: > 100 µM
- TGI [40]: > 100 µM
- GI50 [41]: > 100 µM
- TGI [41]: > 100 µM
- GI50 [42]: > 100 µM
- TGI [42]: > 100 µM
- GI50 [43]: > 100 µM
- TGI [43]: > 100 µM
- GI50 [44]: > 100 µM
- TGI [44]: > 100 µM
- GI50 [45]: > 100 µM
- TGI [45]: > 100 µM
- GI50 [46]: > 100 µM
- TGI [46]: > 100 µM
- GI50 [47]: > 100 µM
- TGI [47]: > 100 µM
- GI50 [48]: > 100 µM
- TGI [48]: > 100 µM
- GI50 [49]: > 87.9 µM
- TGI [49]: > 100 µM
- GI50 [50]: > 100 µM
- TGI [50]: > 100 µM
- GI50 [51]: > 100 µM
- TGI [51]: > 100 µM
- GI50 [52]: > 100 µM
- TGI [52]: > 100 µM
- GI50 [53]: > 100 µM
- TGI [53]: > 100 µM
- GI50 [54]: > 100 µM
- TGI [54]: > 100 µM
- GI50 [55]: > 100 µM
- TGI [55]: > 100 µM
- GI50 [56]: > 100 µM
- TGI [56]: > 100 µM
- GI50 [57]: > 100 µM
- TGI [57]: > 100 µM
- GI50 [58]: > 100 µM
- TGI [58]: > 100 µM
- GI50 [59]: > 100 µM
- TGI [59]: > 100 µM
